Results reported in US3932512A, “Antiviral 1,2,3,4-tetrahydro-1,-alkano naphthalenamine derivatives” (priority 1972, dated 1976).
Where two headings read alike, the source gives them in different places.

Tests used:
[1] = tested on: influenza A2 virus Aichi/2/68; experiment: preventive control of influenza A2 in mice, compound I at different levels; type: in vivo, influenza A2 virus Aichi/2/68 (in Charles River white mice)
Procedure: In the following experiment, compound I was tested at different levels for preventive control of influenza as follows:
Charles River white mice, starting weight: 10-12 g;
12 mice per group (24 mice as control).
Virus: Mice were inoculated intranasally with influenza
A2 virus Aichi/2/68, with a titer of 2,88 LD50,
Mice were divided into 5 groups and received
day intraperitoneally, once a day for 16 days
beginning one day prior to infection with the
virus. Mice were weighed each day before inocula-
tions and doses adjusted according to the actual
weight of each animal. The active compound was
suspended in phosphate buffered saline.

mice = experiment: toxicity of in vitro active anti-myxovirus compounds in mice
[2] = as above; conditions: mouse, in vivo
[3] = cytotoxicity in G-2 cells; type: cell-based; conditions: human
Procedure: In preparing the compounds for testing, they were handled aseptically throughout. The compounds were dissolved in a minimum amount of a suitable solvent and the final dilutions were made up to the required volume in a complete culture medium used in assay and in concentration not exceeding the predetermined maximum non-toxic levels.
The cell culture used in all primary in vitro anti-myxovirus assays was an established cell line of the human conjunctiva (G-2 cells). The cytotoxic studies of each of the compounds were performed prior to testing for antiviral activity to determine level of response of the cells to the potentially toxic action of the compounds.

Influenza A2 /Aichi/3/68 = experiment: in vitro anti-myxovirus activity, influenza A2 /Aichi/3/68, G-2 cells (% inhibition of hemadsorption); type: cell-based, Influenza A2 /Aichi/3/68 (human); conditions: for inhibition at 40 µg/mL: 40 μg/ml; for inhibition at 30 µg/mL / inhibition at 50 µg/mL / inhibition at 60 µg/mL / inhibition at 70 µg/mL / inhibition at 80 µg/mL / inhibition at 90 µg/mL / inhibition at 100 µg/mL: Homo sapiens; for inhibition at 30 µg/mL: 30 μg/ml; for inhibition at 50 µg/mL: 50 μg/ml; for inhibition at 60 µg/mL: 60 μg/ml; for inhibition at 70 µg/mL: 70 μg/ml; for inhibition at 80 µg/mL: 80 μg/ml; for inhibition at 90 µg/mL: 90 μg/ml; for inhibition at 100 µg/mL: 100 μg/ml, read-out: % Inhibition
Influenza (swine) = experiment: cells; type: cell-based
influenza viruses = experiment: relative antiviral activity in vitro; type: cell-based; conditions: words
[4] = 100 mg/kg, day 10 postinfection
[5] = 100 mg/kg, day 11 postinfection
[6] = 100 mg/kg, day 12 postinfection
[7] = 100 mg/kg, day 13 postinfection
[8] = 100 mg/kg, day 14 postinfection

N[C@H]1C[C@@H]2C[C@H]1c1ccccc12 (relative stereo) [Compound I]
Survivors % ([1]; 40 mg/kg): 8.3%
Survivors S/T ([1]; 40 mg/kg): 1/12
Cumulative mortality % ([1]; 40 mg/kg, day 8 postinfection): 8.3%
Cumulative mortality N ([1]; 40 mg/kg, day 8 postinfection): 1
Cumulative mortality % ([1]; 40 mg/kg, day 9 postinfection): 41.7%
Cumulative mortality N ([1]; 40 mg/kg, day 9 postinfection): 5
Cumulative mortality % ([1]; 40 mg/kg, day 10 postinfection): 58.3%
Cumulative mortality N ([1]; 40 mg/kg, day 10 postinfection): 7
Cumulative mortality % ([1]; 40 mg/kg, day 11 postinfection): 75.0%
Cumulative mortality N ([1]; 40 mg/kg, day 11 postinfection): 9
Cumulative mortality % ([1]; 40 mg/kg, day 12 postinfection): 83.3%
Cumulative mortality N ([1]; 40 mg/kg, day 12 postinfection): 10
Cumulative mortality % ([1]; 40 mg/kg, day 13 postinfection): 91.6%
Cumulative mortality N ([1]; 40 mg/kg, day 13 postinfection): 11
Cumulative mortality % ([1]; 40 mg/kg, day 14 postinfection): 91.6%
Cumulative mortality N ([1]; 40 mg/kg, day 14 postinfection): 11
Survivors % ([1]; 55 mg/kg): 8.3%
Survivors S/T ([1]; 55 mg/kg): 1/12
Cumulative mortality % ([1]; 55 mg/kg, day 8 postinfection): 8.3%
Cumulative mortality N ([1]; 55 mg/kg, day 8 postinfection): 1
Cumulative mortality % ([1]; 55 mg/kg, day 9 postinfection): 16.7%
Cumulative mortality N ([1]; 55 mg/kg, day 9 postinfection): 2
Cumulative mortality % ([1]; 55 mg/kg, day 10 postinfection): 41.7%
Cumulative mortality N ([1]; 55 mg/kg, day 10 postinfection): 5
Cumulative mortality % ([1]; 55 mg/kg, day 11 postinfection): 58.3%
Cumulative mortality N ([1]; 55 mg/kg, day 11 postinfection): 7
Cumulative mortality % ([1]; 55 mg/kg, day 12 postinfection): 75.0%
Cumulative mortality N ([1]; 55 mg/kg, day 12 postinfection): 9
Cumulative mortality % ([1]; 55 mg/kg, day 13 postinfection): 91.6%
Cumulative mortality N ([1]; 55 mg/kg, day 13 postinfection): 11
Cumulative mortality % ([1]; 55 mg/kg, day 14 postinfection): 91.6%
Cumulative mortality N ([1]; 55 mg/kg, day 14 postinfection): 11
Survivors % ([1]; 70 mg/kg): 50.0%
Survivors S/T ([1]; 70 mg/kg): 6/12
Cumulative mortality % ([1]; 70 mg/kg, day 8 postinfection): 8.3%
Cumulative mortality N ([1]; 70 mg/kg, day 8 postinfection): 1
Cumulative mortality % ([1]; 70 mg/kg, day 9 postinfection): 8.3%
Cumulative mortality N ([1]; 70 mg/kg, day 9 postinfection): 1
Cumulative mortality % ([1]; 70 mg/kg, day 10 postinfection): 41.7%
Cumulative mortality N ([1]; 70 mg/kg, day 10 postinfection): 5
Cumulative mortality % ([1]; 70 mg/kg, day 11 postinfection): 50.0%
Cumulative mortality N ([1]; 70 mg/kg, day 11 postinfection): 6
Cumulative mortality % ([1]; 70 mg/kg, day 12 postinfection): 50.0%
Cumulative mortality N ([1]; 70 mg/kg, day 12 postinfection): 6
Cumulative mortality % ([1]; 70 mg/kg, day 13 postinfection): 50.0%
Cumulative mortality N ([1]; 70 mg/kg, day 13 postinfection): 6
Cumulative mortality % ([1]; 70 mg/kg, day 14 postinfection): 50.0%
Cumulative mortality N ([1]; 70 mg/kg, day 14 postinfection): 6
Survivors % ([1]; 85 mg/kg): 50.0%
Survivors S/T ([1]; 85 mg/kg): 6/12
Cumulative mortality % ([1]; 85 mg/kg, day 8 postinfection): 0%
Cumulative mortality N ([1]; 85 mg/kg, day 8 postinfection): 0
Cumulative mortality % ([1]; 85 mg/kg, day 9 postinfection): 8.3%
Cumulative mortality N ([1]; 85 mg/kg, day 9 postinfection): 1
Cumulative mortality % ([1]; 85 mg/kg, day 10 postinfection): 25.0%
Cumulative mortality N ([1]; 85 mg/kg, day 10 postinfection): 3
Cumulative mortality % ([1]; 85 mg/kg, day 11 postinfection): 33.3%
Cumulative mortality N ([1]; 85 mg/kg, day 11 postinfection): 4
Cumulative mortality % ([1]; 85 mg/kg, day 12 postinfection): 50.0%
Cumulative mortality N ([1]; 85 mg/kg, day 12 postinfection): 6
Cumulative mortality % ([1]; 85 mg/kg, day 13 postinfection): 50.0%
Cumulative mortality N ([1]; 85 mg/kg, day 13 postinfection): 6
Cumulative mortality % ([1]; 85 mg/kg, day 14 postinfection): 50.0%
Cumulative mortality N ([1]; 85 mg/kg, day 14 postinfection): 6
Survivors % ([1]; 100 mg/kg): 66.4%
Survivors S/T ([1]; 100 mg/kg): 8/12
Cumulative mortality % ([1]; 100 mg/kg, day 8 postinfection): 0%
Cumulative mortality N ([1]; 100 mg/kg, day 8 postinfection): 0
Cumulative mortality % ([1]; 100 mg/kg, day 9 postinfection): 0%
Cumulative mortality N ([1]; 100 mg/kg, day 9 postinfection): 0
Cumulative mortality % [1, 4]: 16.7%
Cumulative mortality N [1, 4]: 2
Cumulative mortality % [1, 5]: 25.0%
Cumulative mortality N [1, 5]: 3
Cumulative mortality % [1, 6]: 33.3%
Cumulative mortality N [1, 6]: 4
Cumulative mortality % [1, 7]: 33.3%
Cumulative mortality N [1, 7]: 4
Cumulative mortality % [1, 8]: 33.3%
Cumulative mortality N [1, 8]: 4
Maximal non-toxic dose LD0, acute (mice; I/P): 125 mg/kg
Maximal non-toxic dose LD0, subacute (mice; I/P): 100 mg/kg
Maximal non-toxic dose LD0, acute (mice; P/O): 250 mg/kg
Maximal non-toxic dose LD0, subacute (mice; P/O): 225 mg/kg
MTD [2]: ≤ 100 mg/kg
LD50 ([2]; ip, 50% toxic dose LD50, acute, I/P, acute): 100 mg/kg
LD50 ([2]; ip, 50% toxic dose LD50, subacute, I/P, subacute): 100 mg/kg
LD50 ([2]; po, 50% toxic dose LD50, acute, P/O, acute): 275 mg/kg
LD50 ([2]; po, 50% toxic dose LD50, subacute, P/O, subacute): 250 to 275 mg/kg
CC50 ([3]; 50% inhibition of cell growth, read-out: Cytotoxicity CTD50): > 100 µg/mL
MNTC ([3]; maximal non-toxic concentration, read-out: Cytotoxicity CTD0): > 100 µg/mL
inhibition at 40 µg/mL (Influenza A2 /Aichi/3/68; 17.8 TCID50): 13%
inhibition at 40 µg/mL (Influenza A2 /Aichi/3/68; 178 TCID50): 0%
inhibition at 30 µg/mL (Influenza A2 /Aichi/3/68; 17.8 TCID50): 0%
inhibition at 30 µg/mL (Influenza A2 /Aichi/3/68; 178 TCID50): 0%
inhibition at 50 µg/mL (Influenza A2 /Aichi/3/68; 17.8 TCID50): 30%
inhibition at 50 µg/mL (Influenza A2 /Aichi/3/68; 178 TCID50): 10%
inhibition at 60 µg/mL (Influenza A2 /Aichi/3/68; 17.8 TCID50): 87%
inhibition at 60 µg/mL (Influenza A2 /Aichi/3/68; 178 TCID50): 37%
inhibition at 70 µg/mL (Influenza A2 /Aichi/3/68; 17.8 TCID50): 90%
inhibition at 70 µg/mL (Influenza A2 /Aichi/3/68; 178 TCID50): 53%
inhibition at 80 µg/mL (Influenza A2 /Aichi/3/68; 17.8 TCID50): 97%
inhibition at 80 µg/mL (Influenza A2 /Aichi/3/68; 178 TCID50): 77%
inhibition at 90 µg/mL (Influenza A2 /Aichi/3/68; 17.8 TCID50): 97%
inhibition at 90 µg/mL (Influenza A2 /Aichi/3/68; 178 TCID50): 80%
inhibition at 100 µg/mL (Influenza A2 /Aichi/3/68; 17.8 TCID50): 97%
inhibition at 100 µg/mL (Influenza A2 /Aichi/3/68; 178 TCID50): 90%
inhibition at 40 µg/mL (Influenza (swine); 40 μg/ml): 0%
% Inhibition (Influenza (swine); 50 μg/ml, listed as 1,2,3,4-TETRAHYDRO-1,4-[…]-ENDO-2-AMINE.HCl): 7%
inhibition at 80 µg/mL (Influenza (swine); 80 μg/ml): 90%
inhibition at 90 µg/mL (Influenza (swine); 90 μg/ml): 97%
inhibition at 100 µg/mL (Influenza (swine); 100 μg/ml): 100%

C[C@@H]1[C@H](N)[C@H]2C[C@@H]1c1ccccc12 (relative stereo) [IV, 1,2,3,4-tetrahydro-1,4-methanonaphthalen-endo-3-methyl-endo-2-amine]
relative antiviral activity (influenza viruses): relatively low antiviral activity
